Data on two molecules can be found in patent publication US11584749B2, “Phosphor-tetrazine compound and use thereof” (Spark Biopharma, Inc., priority 2018, dated 2023).

The subject of experiment [1] is microtubule (HeLa human cervical cancer cells). The experiment can be described thus: Fluorescence bio-imaging of microtubule in fixed HeLa cells pre-treated with Docetaxel-TCO conjugate. The class given is cell-based. The conditions noted are these: for fluorescence signal on addition to cells: fixed HeLa cells cultured with Dox-TCO for 1 hour, washed with PBS; for specificity of staining, immunofluorescence with α-tubulin antibody: fixed HeLa cells, Dox-TCO. Here is the method: (§1) The fluorescence imaging test was performed using a DeltaVision Elite imaging system of GE Healthcare, and an Olympus IX-71 microscope was used.
Docetaxel-TCO conjugate (Dox-TCO) was used for fluorescence bio-imaging of microtubule. HeLa human cervical cancer cells were fixed, and cultured with Dox-TCO for 1 hour, and then washed with PBS.

In experiment [2] the test system is mitochondria (HeLa cells). The experiment can be described thus: Fluorescence imaging of mitochondria in living HeLa cells pre-treated with TPP-TCO. The class given is cell-based, human. The conditions noted are these: for position of fluorescence signal versus MitoTracker Deep Red: HeLa cells, TPP-TCO and compound; for fluorescence mitochondria image: living HeLa cells treated with TPP-TCO for 1 hour; for fluorescence mitochondria image / fluorescence expression intensity in the extracellular region: then compound; for fluorescence expression intensity in the extracellular region: living HeLa cells treated with TPP-TCO. Here is the method:
as §1
In order to confirm the fluorescence imaging of mitochondria in living cells, it was tested by the following method.
HeLa cells were incubated for 1 hour in the presence or absence of triphenylphosphonium (TPP)-TCO, and then HeLa cells were washed and treated with the compound of Example 5 or Example 6.
In addition, in order to confirm the selectivity of TPP-TCO and Example 5, and TPP-TCO and Example 6 for mitochondria, HeLa cells were treated with MitoTracker Deep Red, a mitochondria coloring dye, As a result, it was observed that the position of the fluorescence signal of MitoTracker Deep Red was consistent with that of Example 5 or Example 6.

Structures are written as SMILES.

In the case of `Cc1nnc(-c2ccn3c4c(c(-c5ccccc5)c3c2)CN(CCCN2CCN(CCC(=O)O)CC2)C4=O)nn1` [Example 5, 3-(4-(3-(7-(6-methyl-1,2,4,5-tetrazin-3-yl)-3-oxo-9-phenyl-1,3-dihydro-2H-pyrrolo[3,4-b]indolizin-2-yl)propyl)piperazin-1-yl)propanoic acid], in experiment [1], the “fluorescence signal on addition to cells” value is given as “a bright fluorescence signal was generated” and the “specificity of staining, immunofluorescence with α-tubulin antibody” value was “microtubule specific staining”. In addition, in experiment [2], the “position of fluorescence signal versus MitoTracker Deep Red” value was “consistent”, the fluorescence mitochondria image result is listed as “a clear fluorescence mitochondria image was observed” and the “fluorescence expression intensity in the extracellular region” value is reported as 0.

Consider `CCN(CC)c1ccc(-c2c3c(n4ccc(-c5nnc(C)nn5)cc24)C(=O)N(CCCN2CCN(C)CC2)C3)cc1` [Example 6, 9-(4-(diethylamino)phenyl)-7-(6-methyl-1,2,4,5-tetrazin-3-yl)-2-(3-(4-methylpiperazin-1-yl)propyl)-1,2-dihydro-3H-pyrrolo[3,4-b]indolizin-3-one], for which, in experiment [1], the “fluorescence signal on addition to cells” value is given as “a bright fluorescence signal was generated” and the “specificity of staining, immunofluorescence with α-tubulin antibody” value is “microtubule specific staining”. Also, in experiment [2], the “position of fluorescence signal versus MitoTracker Deep Red” value is on record as “consistent”, the fluorescence mitochondria image entry is listed as “a clear fluorescence mitochondria image was observed” and the “fluorescence expression intensity in the extracellular region” value stood at 0.
